The test concerns osteoarthritis model rats. Kind of test: Osteoarthritis regeneration after intra-articular injection in osteoarthritis animal model. As to conditions: injected into knee joints at 6 and 9 weeks after surgery, euthanized at 14 weeks. The test is classed as in vivo. How it is done: The rats were euthanized at 14 weeks, and joint tissues were separated and fixed in 10% paraformaldehyde, and then treated with 6% nitric acid for to decalcification. The tissues were embedded in a Tissue-Tek O.C.T. compound (Sakura Finetek Japan Co., Ltd.), sectioned to 10 μm and attached to a slide glass, and thereafter, staining with Safranin-O/fast green and immunofluorescence of collagen type II (COL2A1) and aggrecan were performed.

Consider 1 compound from patent US10064832B2, “Kartogenin-conjugated chitosan particles with improved sustained release property and biocombatibility, and use thereof” (priority 2014, dated 2018).

Take `O=C(O)c1ccccc1C(=O)Nc1ccc(-c2ccccc2)cc1` [kartogenin]: the “COL2 protein (immunofluorescent staining)” value is on record as “noticeable reduction”; the “aggrecan protein (immunofluorescent staining)” value is “noticeable reduction”; the “cartilage histology (Safranin-O/fast green)” value is “weak vertical matrix cracks in a deep area of cartilage and loss and surface peeling of cartilage”.
